# Measurements as given in US20230035403A1, “Method For Determining Responsiveness To Prostate Cancer Treatment” (Janssen Biotech, Inc., priority 2020, published 2023).
# Assays:
# [1] = tested on: CD8+ T cells in PBMCs from patients with metastatic castrate-resistant prostate cancer; experiment: Patient PBMC restimulation assay (in vitro immunogenicity of neoantigens); type: cell-based, human; conditions: for Immunogenic: Patient PBMC restimulation, TNFα and IFNγ production by CD8+ T cells; for Maximum fold change over negative control: TNFα+IFNγ+CD8+ T cells, highest fold change across the PBMC donors evaluated, 9 mer peptide; for Maximum frequency of TNFα^+IFNγ^+CD8^+ T cells (Percent): greatest frequency among all tested PBMC donors, negative control 0.011-0.8 depending on patient
# Procedure, shortened: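 PBMCs from metastatic castrate-resistant prostate cancer patients were stimulated with 9-mer neoantigen peptides (5 μg/mL final) plus IL-15 for 13 days, with IL-2 added during culture, and restimulated on day 12. Live CD3+CD8+ TNFα+/IFNγ+ frequency was measured by flow cytometry. A response was positive at ≥2-fold over the DMSO control.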
# [2] = tested on: autologous CD3+ Pan-T cells (CD8+ and CD4+ T cells) with Ad5-transduced CD1c+ Dendritic Cells; experiment: Endogenous autologous normal donor restimulation assay (Ad5-transduced dendritic cells); type: cell-based, human; conditions: Table 27, restimulation with overlapping 15-mer peptide pools, maximum across sixteen donors
# Procedure: CD1c+ Dendritic Cells (DC) isolated from human normal PBMCs were thawed using media (IMDM (Gibco) supplemented with glutamine, HEPES, 5% human serum (Sigma), and 1× Pen-Strep). DC cells were resuspended in media supplemented with IL-4 (Peprotech, 80 ng/mL) and GM-CSF (Gibco, 80 ng/mL), plated in 6 well microplates, and rested overnight at 37° C. (5% CO2). The following day, DC cells were counted and plated in a 96 well round bottom microplate at a concentration of 30,000 viable cells per well. Ad5 vectors (Vector Biolabs) were dilute in media to an MOI (Multiplicity Of Infection) of 5000 based on Plaque Forming Units. Ad5 vectors for the CEF pool and a “null” were used as controls. DCs were transduced with Ad5 vectors overnight at 37° C. (5% CO2). The following day, the Ad5 vectors were washed off the plate by three sequential centrifugation/aspiration steps using sterile Phosphate Buffered Saline. After the final wash, transduced DCs were resuspended in 100 μL media. Autologous CD3+ Pan-T cells isolated from human normal PBMCs were thawed using media. Pan-T cells were added to the irradiated DCs at 300,000 viable cells per well (100 μL/well). Human IL-15 (Peprotech) was added to all wells at final concentration of 10 ng/mL.
# Plates were incubated at 37° C. (5% CO2) for a total of 12 days. Media was refreshed every 2-3 days with IL-15 (10 ng/mL final concentration) and IL-2 (R&D systems, 10 IU/mL final concentration). On day 11 lyophilized peptides (15-mer overlapping peptides) were solubilized in 100% DMSO and pooled by neoantigen to between 5 mg/mL and 20 mg/mL. […]
# On day 12, cells were stained for intracellular flow cytometry analysis. […] Cells were washed and resuspended in stain buffer and analyzed using a BD Celesta flow cytometer.
# Flow cytometry cell staining analysis was completed using FlowJo v10. […] The CD8+ and CD4+ T cells were analyzed for TNFα/IFNγ expression and the frequency of double positive TNFα/IFNγ CD8+ and the frequency of double positive TNFα/IFNγ CD4+ T cells were recorded. Responses were assessed to be positive when the frequency of double positive TNFα/IFNγ CD8+ or TNFα/IFNγ CD4+ T cells due to stimulation with an experimental peptide pool was increased greater than or equal to 3-fold over the DMSO only negative control for that donor and at least 0.01%.
# For three of the neoantigens, an Ad5 vector was designed to transduce normal Dendritic cells with the neoantigens. This assay assessed the ability of the endogenously expressed and presented neoantigens to activate autologous T cells following overlapping 15-mer peptide pools restimulation using the endogenous autologous normal donor restimulation assay described in Example 1 utilizing TNFα and IFNγ production by CD8^+ and CD4^+ T cells as a readout. […]
Sequence,Immunogenic [1],Maximum fold change over negative control [1],Maximum frequency of TNFα^+IFNγ^+CD8^+ T cells (Percent) [1] [%],Maximum Fold Change Over Background CD4+ cells [2],Maximum Fold Change Over Background CD8+ cells [2],Maximum Frequency of TNFα/IFNγ Double Positive CD4+ T cells [2],Maximum Frequency of TNFα/IFNγ Double Positive CD8+ T cells [2]
SLYHREKQLIAMDSAI [Neoantigen P22],Yes,5.00,0.120,–,–,–,–
YEAGMTLGEKFRVGNCKHLKMTRP [Neoantigen P82],Yes,3.46,0.970,–,–,–,–
YEAGMTLGGKILFFLFLLLPLSPFSLIF [Neoantigen P87],Yes,3.24,0.120,2.41,2.47,0.079,0.39
